# Laboratory results from US5001234A, “Cyclic hydrocarbons with an aminoalkyl sidechain” (The Upjohn Company, priority 1989, dated 1991).
# Counter-ions that a name gives are not always drawn.
# Test system: phospholipase A2
# Assay: Phospholipase A2 inhibition by at least one of two tests: inhibition of rat neutrophil aggregation, inhibition of hog pancreas PLA2
# Type: biochemical
# Set-up: key: Compounds that have been found to have a phospholipase A2 inhibitory or antidiabetic effect as determined by at least one of the above assays are indicated in the Examples and Preparations which follow by the notation "PLA2" and/or "diabetes" respectively; Compounds that have been found to have a phospholipase A2 inhibitory or antidiabetic effect as determined by at least one of the above assays are indicated in the Examples and Preparations which follow by the notation "PLA2" and/or "diabetes" respectively
# Settings: found in at least one of the assays (rat neutrophil aggregation, FMLP; hog pancreas PLA2)
# Protocol: Inhibition of Rat Neutrophil Aggregation
# 1. Method for Thioglycolate Broth Preparation
# Weigh sufficient thioglycolate medium, USP grade, to prepare a 5% w/v solution in sterile water. Heat the solution for 10 minutes on a boiling water bath. Remove and allow the solution to cool to 20°-25°. Inject 10±0.5 ml intraperitoneally into Sprague-Dawley rats as described below.
# 2. Method for Rat Peritoneal Leukocyte Collection
# Six (6) Sprague-Dawley, pathogen free, female rats (230-270 grams) are injected intraperitoneally with 10.0±0.5 ml thioglyco. late broth. 5% w/v […] prior to sacrifice. After sacrifice by cervical dislocation, leukocytes accumulated in the peritoneal cavity are collected by injecting 30 ml of sterile 0.9% w/v sodium chloride intraperitoneally and vigorously massaging the abdomen to assure uniform dispersion of the cells within the carcass. Use a pasteur pipet to remove approximately 20 ml of fluid with suspended cells from a small incision through the abodominal wall. Collect the cell suspension in plastic culture tubes.
# 3. Washing and Resuspension of Cells for Aggregation
# Centrifuge the cell suspensions isolated above for 10 minutes at 1000 rpm (Sorvall RC.3, HG-4L rotor, 25° C.). Discard the supernatant. Resuspend the cells evenly in 0.9% NaCl to original volume, centrifuge a second time for 10 minutes at 1000 rpm. Discard the supernatant. […]
row,SMILES,"phospholipase A2 inhibitory effect (notation ""PLA2"")"
1,"CN(C)CCCO[C@H]1CC[C@H]2[C@@H](CC[C@@H]3[C@@H]2CC[C@]2(C)C(NCCCN)CC[C@@H]32)C1 (stereo partly drawn) [Example 10, N-[(3β,5α)-3-[3-(dimethylamino)propoxy]estran.17-yl]-1,3-diaminopropane]",PLA2
2,"C[C@]12CC[C@H]3[C@@H](CC[C@H]4C[C@@H](OCCCN)CC[C@@H]43)[C@@H]1CCC2=O [Preparation 8, N-(3β,5α)-3-(3-aminopropoxy)estran-17-one]",PLA2

# Test system: KKA^y mice with spontaneous diabetes
# Assay: Blood glucose lowering in the KKA^y mouse
# Type: in vivo
# Set-up: key: Compounds that have been found to have a phospholipase A2 inhibitory or antidiabetic effect as determined by at least one of the above assays are indicated in the Examples and Preparations which follow by the notation "PLA2" and/or "diabetes" respectively; Compounds that have been found to have a phospholipase A2 inhibitory or antidiabetic effect as determined by at least one of the above assays are indicated in the Examples and Preparations which follow by the notation "PLA2" and/or "diabetes" respectively
# Settings: compound 1 mg/gram of chow, nonfasting blood glucose on day 4 of treatment
# Protocol: All KKA^y mice used for screening are produced and selected by methods previously outlined, T. Fujita et al., Diabetes, 32 804-10 (1983). Groups of 6 animals each are employed.
# Pre-treatment nonfasting blood glucose (NFBG) samples are measured 5 days prior to the start of a screening run by previously described methodologies. These blood sugar values are used to place animals into groups with equal mean blood glucose concentrations and to eliminate any mice with a NFBG value <250 mg/dl. On day 0, compounds chosen to be run are incorporated into ground mouse chow (Purina 5015). Compounds are included at a rate of 1 mg/gram of chow. Generally, 300 g of drugs containing diet is prepared for each group. Mice receiving ground chow only are the negative control. Each screening run also uses ciglitazone (T. Fujita, et al., supra) as a positive control (0.5 to 1.0 mg/gram chow).
# Initial body and food weights are taken on day 1. Food is placed in a crock which contains an adequate amount to last for the length of the study. In order to acclimate the mice from pelleted mouse chow to ground mouse chow, they are fed the ground chow for 9 days prior to use in the screen. On day 4 of treatment, a NFBG sample is again measured, as well as food and body weights. Food consumption measurements are used to determine an average mg/kg dose the mice received over the testing period, and to evaluate the compound's effect on food consumption.
# 3. Acceptance of a Screening Run and Determination of Activity
# Acceptance and activity are determined by the following criteria:
# This group must not show a significant change (p<0.05) from pre-to post-treatment. If there is a significant decrease in blood sugar the run is not valid.
# This group must show a significant depression in blood sugar mean levels from pre- to post-treatment. A lack of activity in this group would also invalidate the run.
# C. Negative Control vs. Positive Control
# This contrast must be significant. It is a further assurance that both control groups performed as expected.
# A compound's activity is based on several criteria:
# (1) A significant decrease in blood sugar mean levels from pre- to post-treatment.
# (2) Negative control vs. compound: This contrast allows one to determine if these groups are dissimilar, which is required for the compound to be considered active.
row,SMILES,"antidiabetic effect (notation ""diabetes"")"
1,"COc1ccc2c(c1)CC[C@@H]1[C@@H]2CC[C@]2(C)[C@@H](NCc3cccs3)CC[C@@H]12 [Example 1, 3-Methoxy-17β-[(2-thienylmethyl)amino]-estra-1,3,5-(10)-triene]",diabetes
2,"C=CCOc1ccc2c(c1)CC[C@@H]1[C@@H]2CC[C@]2(C)[C@@H](NCc3cccc(C(F)(F)F)c3)CC[C@@H]12 [Example 2, 3-Allyloxy-17β-[((3-trifluoromethyl)phenylmethyl)-amino-estra-1,3,5(10)-triene Fumarate]",diabetes
3,C[C@]12CC[C@@H]3c4ccc(OCCCO)cc4CC[C@H]3[C@@H]1CC[C@@H]2NCc1cccc(C(F)(F)F)c1 [Example 3],diabetes
4,"COc1ccc2c(c1)C[C@@H](C)[C@@H]1[C@@H]2CC[C@]2(C)[C@@H](NCc3cccc(C(F)(F)F)c3)CC[C@@H]12 [Example 4, 3-Methoxy-7α-methyl-17β-[((3-trifluoromethyl)phenylmethyl)amino-estra-1,3,5(10)-triene Fumarate Hydrate]",diabetes
5,COc1ccc2c(c1)CC[C@@H]1[C@@H]2[C@@H](O)C[C@]2(C)[C@@H](NCc3cccc(C(F)(F)F)c3)CC[C@@H]12 [Example 5],diabetes
6,CN(CCc1ccc(S(N)(=O)=O)cc1)[C@H]1CC[C@H]2[C@@H]3CC[C@H]4CCCC[C@]4(C)[C@H]3CC[C@]12C [Example 6],diabetes
7,COc1cc2c(cc1C)[C@H]1CC[C@]3(C)[C@@H](NCCc4ccc(S(N)(=O)=O)cc4)CC[C@H]3[C@@H]1CC2 [Example 7],diabetes
8,C[C@]12CC=CC[C@@H]1CC[C@@H]1[C@@H]2CC[C@]2(C)[C@@H](NCCc3ccc(S(N)(=O)=O)cc3)CC[C@@H]12 [Example 8],diabetes
